From US20110105544A1, “CARBOXYLIC DERIVATIVES FOR USE IN THE TREATMENT OF CANCER” (priority 2007, published 2011)

Key:
[1] = system: human colon cancer cell line HCT116; assay: alamarBlue viability assay, HCT116; format: cell-based; settings: HCT-116, 72 hours, dose required to inhibit cell growth by 50%
Method: (§1) The human colon cancer cell line HCT116 and the human breast cancer cell line MCF-7 were from the American Type Culture Collection (ATCC; CCL-247 and HTB-22, respectively).
(§2) The HCT116 cell line was maintained in DMEM GlutaMAX (Invitrogen) supplemented with 10% fetal calf serum and the MCF7 cell line was maintained in RPMI1640 GlutaMAX (Invitrogen) containing 1 mM sodium piruvate and 10% fetal calf serum.
(§3) Cells were grown in a humidified incubator at 37° C. in 5% CO2.
(§4) Cells were plated in 96-well plates at a density of 6000 cells/well in 100 μl medium 24 h before addition of drugs. […] To do so, a drugs-dilution plate at twice the screening concentrations was prepared. 72 hours later, alamarBlue (Biosource, Invitrogen) viability assay was performed following manufacturer's protocol. In brief, alamarBlue diluted in media was added to cells to have a 5% solution. Cells were incubated at 37° C., 3 hours and at room temperature, 30 min. Cells with no drug and, cells with no drug and lysed with triton X-100 were used as controls. Fluorescence was monitored at 530 nm excitation and 590 nm emission wavelengths. Results were quantified using Infinite F200 Microplate Reader (Tecan Group, Ltd.). EC50 were calculated as the dose of drugs required to inhibit cell growth by 50%, with Origin 7.0 computer program.

[2] = molecular target: T1, human recombinant HDAC 8 (Homo sapiens, UniProt Q9BY41); assay: HDAC inhibition assay (Fluor de Lys), HDAC8; format: biochemical; settings: inhibitor-protein incubation 0 hours, reaction 3 hours, 37° C.
T1 construct: purchased BPS Bioscience 50008
T1 sequence (Q9BY41 1-377): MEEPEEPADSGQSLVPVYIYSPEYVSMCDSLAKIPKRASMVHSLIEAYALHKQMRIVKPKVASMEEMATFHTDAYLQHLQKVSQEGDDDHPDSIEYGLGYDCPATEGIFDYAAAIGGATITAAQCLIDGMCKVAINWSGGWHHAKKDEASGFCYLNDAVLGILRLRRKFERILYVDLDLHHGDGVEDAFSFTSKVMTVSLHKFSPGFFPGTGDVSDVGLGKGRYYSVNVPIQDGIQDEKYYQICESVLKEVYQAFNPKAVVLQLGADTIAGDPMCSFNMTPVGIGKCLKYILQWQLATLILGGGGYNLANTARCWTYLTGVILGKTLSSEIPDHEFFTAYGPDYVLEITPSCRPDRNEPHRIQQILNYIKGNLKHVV
Method: (§5) All assays were carried out in the assay buffer: 50 mM Tris/Cl, pH 8.0, 137 mM NaCl, 2.7 mM KCl, 1 mM MgCl2).
(§6) Reactions were carried out in a 96-wells microplate (Corning 96 well Flat Bottom Non-binding surface (black) ref. 3651).
(§7) Potential inhibitors were added after five fold serial dilutions in DMSO. Final DMSO concentration in the assay microplate was kept at 2%.
(§8) Afterwards, human recombinant HDAC1, HDAC 2 or HDAC 8 were added up to […] respectively in assay buffer. When necessary, the mixture was incubated at room temperature prior the addition of substrate.
(§9) Total reaction volume of 50 μl. Human recombinant HDACs could be acquired from commercial sources (HDAC1: ref. #50001, BPS Bioscience™; HDAC 2: ref. #50002, BPS Bioscience™; HDAC 8: ref. #50008, BPS Bioscience™).
(§10) Reactions were stopped with 50 μl Developer (KI-105 Fluor de Lys™, BIOMOL®) with 2 μmol/L trichostatin A (TSA, final concentration 1 μmol/L). After 20 minutes at 37° C., fluorescence (excitation 360 nm, emission 460 nm) was measured using an Infinite F200 fluorimeter (Tecan). Background was determined in reactions using substrate in the absence of enzyme.
(§11) IC50 values are defined as the compound concentration at which the deacetylase activity is 50% inhibited. In these assays the following grading was used (I: IC50≦10 μM; II: 10 μM<IC50≦100 μM; III: 100 μM<IC50≦1 mM) The results obtained are summarized in Table 4.

[3] = molecular target: T2, human recombinant HDAC 2 (Homo sapiens, UniProt Q92769); assay: HDAC inhibition assay (Fluor de Lys), HDAC2; format: biochemical; settings: inhibitor-protein incubation 2 hours, reaction 1 h 30 min, 37° C.
T2 construct: purchased BPS Bioscience 50002
T2 sequence (Q92769 whole entry): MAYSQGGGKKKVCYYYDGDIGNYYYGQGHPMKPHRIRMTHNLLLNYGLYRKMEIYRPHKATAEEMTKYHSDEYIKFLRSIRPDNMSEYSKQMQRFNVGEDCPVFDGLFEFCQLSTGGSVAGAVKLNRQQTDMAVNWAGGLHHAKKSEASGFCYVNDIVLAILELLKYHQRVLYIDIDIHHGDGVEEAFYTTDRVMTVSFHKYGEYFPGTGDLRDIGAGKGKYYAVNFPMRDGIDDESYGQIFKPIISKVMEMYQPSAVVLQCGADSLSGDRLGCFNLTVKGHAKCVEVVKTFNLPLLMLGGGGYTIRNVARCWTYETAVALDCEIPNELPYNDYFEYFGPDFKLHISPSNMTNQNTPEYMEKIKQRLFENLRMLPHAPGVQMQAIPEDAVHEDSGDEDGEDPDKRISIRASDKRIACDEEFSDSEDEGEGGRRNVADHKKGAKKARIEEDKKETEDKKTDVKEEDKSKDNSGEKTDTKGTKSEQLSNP
Method: as §5, §6, §7, §8, §9, §10, §11

[4] = system: human breast cancer cell line MCF-7; assay: alamarBlue viability assay, MCF-7; format: cell-based; settings: MCF7, 72 hours, dose required to inhibit cell growth by 50%
Method: as §1, §2, §3, §4

[5] = system: MDA-MB-435P (breast); assay: alamarBlue viability assay, MDA-MB-435P; format: cell-based; settings: 72 hours
Method: (§12) Additionally, the following cancer cell lines were used:
as §3
(§13) Cells were plated in 96-well plates at a density of 6000 cells/well in 100 μl medium 24 h before addition of drugs. They were then added in concentrations from 100 μM to 0.45 nM (each concentration in triplicate). To do so, a drugs-dilution plate at twice the screening concentrations was prepared. 72 hours later, alamarBlue (Biosource, Invitrogen) viability assay was performed following manufacturer's protocol. In brief, alamarBlue diluted in media was added to cells to have a 5% solution. Cells were incubated at 37° C., 3 hours and at room temperature, 30 min. Cells with no drug and, cells with no drug and lysed with triton X-100 were used as controls. Fluorescence was monitored at 530 nm excitation and 590 nm emission wavelengths. Results were quantified using Infinite F200 Microplate Reader (Tecan Group, Ltd.). EC50 were calculated as the dose of drugs required to inhibit cell growth by 50%, with Origin 7.0 computer program.

[6] = system: K562 (lymphoma); assay: alamarBlue viability assay, K562; format: cell-based; settings: Homo sapiens, 72 hours
Method: as §12, §3, §4

[7] = system: PC3 (prostate); assay: alamarBlue viability assay, PC3; format: cell-based; settings: 72 hours
Method: as §12, §3, §4

[8] = system: MDA-MB-468 (breast); assay: alamarBlue viability assay, MDA-MB-468; format: cell-based; settings: Homo sapiens, 72 hours
Method: as §12, §3, §13

[9] = molecular target: T3, human recombinant HDAC1 (Homo sapiens, UniProt Q13547); assay: HDAC inhibition assay (Fluor de Lys), HDAC1; format: biochemical; settings: inhibitor-protein incubation 0 hours, reaction 3 hours, 25° C.
T3 construct: purchased BPS Bioscience 50001
T3 sequence (Q13547 whole entry): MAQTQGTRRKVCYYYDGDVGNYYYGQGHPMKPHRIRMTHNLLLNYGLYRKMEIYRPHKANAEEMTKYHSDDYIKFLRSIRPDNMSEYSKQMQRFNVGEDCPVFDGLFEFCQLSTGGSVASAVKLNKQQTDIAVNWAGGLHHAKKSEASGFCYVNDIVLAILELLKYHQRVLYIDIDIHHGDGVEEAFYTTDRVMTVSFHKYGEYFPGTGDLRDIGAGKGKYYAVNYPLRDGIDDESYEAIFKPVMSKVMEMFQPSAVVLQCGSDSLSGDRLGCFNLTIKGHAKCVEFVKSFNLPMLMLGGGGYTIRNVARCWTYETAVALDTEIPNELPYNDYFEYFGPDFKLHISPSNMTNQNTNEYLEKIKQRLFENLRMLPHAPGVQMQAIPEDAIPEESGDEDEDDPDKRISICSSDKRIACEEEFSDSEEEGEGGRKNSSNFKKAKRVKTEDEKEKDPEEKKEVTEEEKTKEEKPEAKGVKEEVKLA
Method: as §5, §6, §7, §8, §9, §10
(§14) IC50 values are defined as the compound concentration at which the deacetylase activity is 50% inhibited. […]

[10] = system: HDACs; assay: HDAC inhibition assays, isoform not specified; format: biochemical, human; settings: result in words
Method: as §5, §6, §7, §8, §9, §10, §14

[11] = system: T98G (glioblastoma); assay: alamarBlue viability assay, T98G; format: cell-based; settings: Homo sapiens, 72 hours
Method: as §12, §3, §13

[12] = system: HepG2 (hepatocarcinoma); assay: alamarBlue viability assay, HepG2; format: cell-based; settings: Homo sapiens, 72 hours
Method: as §12, §3, §13

[13] = system: NP-9 (pancreas); assay: alamarBlue viability assay, NP-9; format: cell-based; settings: 72 hours
Method: The NP-9 cell line from pancreas, was provided by Dr. R. Alemany from Translational Research Laboratory (Institut Catala d'Oncologia). (cf., Cascallò, M. et al., “Ras-dependent Oncolysis with an Adenovirus VAI mutant”, Cancer Research, 2003, 63, 5544-5550). This cells was maintained in DMEM:F12 (Invitrogen) supplemented with 10% fetal calf serum (Invitrogen), L-glutamine […] (Invitrogen), pyruvate […] (Invitrogen).
as §3
as §13, with “EC50 were calculated as the dose of drugs required to inhibit cell growth by 50%, with Origin 7.0 computer program.” left out

[14] = system: A549 (lung); assay: alamarBlue viability assay, A549; format: cell-based; settings: Homo sapiens, 72 hours
Method: as §12, §3, §13

[15] = system: Hep3B (hepatocarcinoma); assay: alamarBlue viability assay, Hep3B; format: cell-based; settings: Homo sapiens, 72 hours
Method: as §12, §3, §4

[16] = system: U87 (glioblastoma); assay: alamarBlue viability assay, U87; format: cell-based; settings: 72 hours
Method: as §12, §3, §13

[17] = system: SK-mel-98 (melanoma); assay: alamarBlue viability assay, SK-mel-98; format: cell-based; settings: 72 hours
Method: as §12, §3, §13

Compound: CCCC(CCc1ccccc1)C(=O)O (stereo not drawn) [Example 7, 2-(2-Phenylethyl)pentanoic acid]
- EC50 [1]: 680 µM
- IC50 [2]: 10 to 100 µM
- IC50 [3]: 100 to 1000 µM
- EC50 [4]: 1850 µM

Compound: O=C(O)C(CCc1ccccc1)Cc1ccccc1 (stereo not drawn) [Example 9, 2-Benzyl-4-phenylbutanoic acid]
- EC50 [5]: 242 µM
- EC50 [1]: 636 µM
- IC50 [2]: 100 to 1000 µM
- EC50 [6]: 472 µM
- EC50 [7]: 364 µM
- EC50 [4]: 1060 µM
- EC50 [8]: 364 µM

Compound: O=C(O)C(CCCc1ccccc1)CCc1ccccc1 (stereo not drawn) [Example 11, 5-Phenyl-2-(2-phenylethyl)pentanoic acid]
- EC50 [5]: 253 µM
- EC50 [1]: 177 µM
- IC50 [9]: 100 to 1000 µM
- IC50 [2]: 10 to 100 µM
- IC50 [3]: 100 to 1000 µM
- EC50 [4]: 268 µM

Compound: CNS(=O)(=O)c1ccc(CC(CCc2ccccc2)C(=O)O)cc1 (stereo not drawn) [Example 12, 2-{4-[(methylamino)sulfonyl]benzyl}-4-phenylbutanoic acid]
- EC50 [1]: 5000 µM
- inhibition of the target of these compounds (i.e. HDACs) [10]: clear inhibition
- IC50 [2]: 100 to 1000 µM
- EC50 [4]: 5000 µM

Compound: CNS(=O)(=O)c1ccc(CCCC(CCc2ccccc2)C(=O)O)cc1 (stereo not drawn) [Example 13, 5-(4-[(Methylamino)sulfonyl]phenyl)-2-(2-phenylethyl)pentanoic acid]
- EC50 [1]: 2400 µM
- IC50 [2]: 100 to 1000 µM
- EC50 [4]: 1800 µM

Compound: CNS(=O)(=O)c1cccc(CCCC(CCc2ccccc2)C(=O)OCOC(C)=O)c1 (stereo not drawn) [Example 19, (Acetyloxy)methyl 5-(3-[(methylamino)sulfonyl]phenyl)-2-(2-phenylethyl)pentanoate]
- EC50 [5]: 6.7 µM
- EC50 [1]: 65 µM
- EC50 [8]: 13 µM

Compound: Cc1ccc(NS(=O)(=O)c2cccc(CCCC(CCc3ccccc3)C(=O)O)c2)cc1 (stereo not drawn) [Example 36]
- EC50 [5]: 125 µM
- EC50 [11]: 118 µM
- EC50 [12]: 140 µM
- EC50 [13]: 41 µM
- EC50 [1]: 98 µM
- EC50 [14]: 104 µM
- IC50 [2]: 10 to 100 µM
- EC50 [6]: 157 µM
- EC50 [15]: 99.7 µM
- EC50 [16]: 105 µM
- EC50 [7]: 168 µM
- IC50 [3]: 10 to 100 µM
- EC50 [17]: 170 µM
- EC50 [8]: 55.4 µM

Compound: CNS(=O)(=O)c1cccc(CCCC(CCc2ccccc2)C(=O)O)c1 (stereo not drawn) [Example 41, 5-(3-[(Methylamino)sulfonyl]phenyl)-2-(2-phenylethyl)pentanoic acid]
- EC50 [1]: 644 µM
- IC50 [9]: 100 to 1000 µM
- IC50 [2]: 10 to 100 µM
- IC50 [3]: 100 to 1000 µM

Compound: COc1ccc(NS(=O)(=O)c2cccc(CCCC(CCc3ccccc3)C(=O)O)c2)cc1OC (stereo not drawn) [Example 43, 5-(3-{[(3,4-dimethoxyphenyl)amino]sulfonyl}phenyl)-2-(2-phenylethyl)pentanoic acid]
- EC50 [5]: 210 µM
- EC50 [1]: 75 µM
- IC50 [2]: 10 to 100 µM
- EC50 [6]: 2.55 µM
- EC50 [7]: 336 µM
- IC50 [3]: 100 to 1000 µM
- EC50 [8]: 87 µM

Compound: CCc1ccc(CCC(CCCc2ccc(S(=O)(=O)Nc3ccccc3)cc2)C(=O)O)cc1 (stereo not drawn) [Example 46, 5-[4-(Anilinosulfonyl)phenyl]-2-[2-(4-ethylphenyl)ethyl]pentanoic acid]
- EC50 [5]: 52 µM
- EC50 [11]: 118 µM
- EC50 [12]: 103 µM
- EC50 [13]: 102 µM
- EC50 [1]: 54 µM
- EC50 [14]: 62.3 µM
- IC50 [2]: ≤ 10 µM
- EC50 [15]: 107 µM
- EC50 [16]: 43 µM
- EC50 [7]: 55.6 µM
- IC50 [3]: 10 to 100 µM
- EC50 [17]: 78.3 µM
- EC50 [8]: 99.8 µM

Compound: O=C(O)C(CCCc1ccccc1)CCc1ccc(OCc2ccccc2)cc1 (stereo not drawn) [Example 55, 2-[2-(4-Benzyloxyphenyl)ethyl]-5-phenylpentanoic acid]
- EC50 [5]: 16 µM
- EC50 [1]: 23 µM
- IC50 [2]: ≤ 10 µM
- EC50 [15]: 418 µM
- EC50 [7]: 102 µM
- IC50 [3]: 10 to 100 µM
- EC50 [8]: 43 µM
